Structures can show the parent of a compound that is named as a salt.

What all share (assay type): cell-based
The subject of one assay is Streptococcus pneumoniae. The assay is described as follows: minimal inhibiting concentration against Streptococcus pneumoniae. Particulars: sodium salt.
In assay [1] the test system is penicillinase non-producer Staphylococcus aureus. The assay is described as follows: minimal inhibiting concentration against penicillinase non-producer Staphylococcus aureus. Particulars: sodium salt.
The subject of the next assay is Streptococcus pyogenes. As to the kind of experiment: minimal inhibiting concentration against Streptococcus pyogenes. Particulars: sodium salt.
The test system of assay [2] is penicillinase producer Staphylococcus aureus. As to the kind of experiment: minimal inhibiting concentration against penicillinase producer Staphylococcus aureus. Particulars: sodium salt.
Another assay has as its system Gram-positive bacteria. The assay is described as follows: activity against Gram-positive bacteria. The note with it: in words.
The next assay deals with Gram-negative bacteria. As to the kind of experiment: minimal inhibiting concentrations against Gram-negative bacteria. The note with it: in words.
For another assay, the system named is Escherichia coli 1507 E. The assay is described as follows: activity against Escherichia coli 1507 E. Particulars: in words.
For the next assay, the system named is Escherichia coli TEM. The assay is described as follows: activity against Escherichia coli TEM. Particulars: in words.
Assay [3] relates to Klebsiella pneumoniae ATCC 10031. As to the kind of experiment: activity against Klebsiella pneumoniae ATCC 10031. Particulars: in words.
In the next assay the test system is Proteus vulgaris X 20. As to the kind of experiment: activity against Proteus vulgaris X 20. The note with it: in words.

On to `C[C@@H](O)[C@H]1C(=O)N2C(C(=O)O)=C(CSc3ccc4nnnn4n3)S[C@H]12` [Sodium(5R,6S)-6-[1(R)-hydroxyethyl]-2-(tetrazolo[1,5-b]-pyridazin-6-yl)-thiomethyl-penem-3-carboxylate], for which the minimal inhibitory concentration (MIC) amounted to 2 ng/mL in the assay on Streptococcus pneumoniae, 4 ng/mL in assay [1], 2 ng/mL in the assay with Streptococcus pyogenes and 4 ng/mL in assay [2].
For the compound `C[C@@H](O)[C@H]1C(=O)N2C(C(=O)O)=C(CSc3ccc4nnnn4n3)S[C@H]12` [(5R,6S)-6-[1(R)-hydroxyethyl]-2-{tetrazolo[1,5-b]pyridazin-6-yl}-thiomethyl-penem-3-carboxylic acid], the “activity against Gram-positive bacteria” value in the assay on Gram-positive bacteria is reported as “particularly active”.
Consider `C[C@@H](O)[C@H]1C(=O)N2C(C(=O)O)=C(CSc3nnnn3C)S[C@H]12` [(5R,6S)-6-[1(R)-hydroxyethyl]-2-[1-methyl-1,2,3,4-tetrazol-5-yl)-thiomethyl]-penem-3-carboxylic acid], for which, in the assay with Gram-negative bacteria, the “minimal inhibiting concentrations against Gram-negative bacteria” value was “particularly favourable values”. For the same compound, the “minimal inhibiting concentrations against Gram-positive bacteria” value in the assay with Gram-positive bacteria was “particularly favourable values”.
For the compound `C[C@@H](O)[C@H]1C(=O)N2C(C(=O)O)=C(CSc3nnnn3CCC(N)=O)S[C@H]12` [(5R,6S)-6-[1(R)-hydroxyethyl]-2-[1-(2-aminocarbonylethyl)-1,2,3,4-tetrazol-5-yl]-thiomethyl-penem-3-carboxylic acid], in the assay with Gram-negative bacteria, the “minimal inhibiting concentrations against Gram-negative bacteria” value is given as “particularly favourable values”. For the same compound, in the assay with Gram-positive bacteria, the “minimal inhibiting concentrations against Gram-positive bacteria” value is on record as “particularly favourable values”.
As for `C[C@@H](O)[C@H]1C(=O)N2C(C(=O)O)=C(CSc3nc(=O)c(O)nn3C)S[C@H]12` [(5R,6S)-6-[1(R)-hydroxyethyl]-2-(2-methyl-5-oxo-6-hydroxy-2,5-dihydro-1,2,4-triazin-3-yl)-thiomethyl-penem-3-carboxylic acid, disodium salt], the “activity against Gram-negative bacteria” value (with Escherichia coli 1507 E; in the assay on Escherichia coli TEM; in [3]; with Proteus vulgaris X 20) was “particularly favourable activity” in each case.
As for `C[C@@H](O)[C@H]1C(=O)N2C(C(=O)O)=C(CSc3nnc(SCC(=O)O)s3)S[C@H]12` [(5R,6S)-6-[1(R)-hydroxyethyl]-2-(5-carboxymethylthio-1,3,4-thiadiazol-2-yl)-thiomethyl-penem-3-carboxylic acid], the “minimal inhibiting concentrations against Gram-negative bacteria” value in the assay on Gram-negative bacteria is listed as “particularly favourable values”. Besides, the “minimal inhibiting concentrations against Gram-positive bacteria” value in the assay on Gram-positive bacteria was “particularly favourable values”.

These data come from patent publication US4577016A, “Process for the preparation of penem derivatives” (Farmitalia Carlo Erba S.p.A., priority 1982, dated 1986).
